Source: publication PMC3739823, “Structural Guided Scaffold Phage Display Libraries as a Source of Bio-Therapeutics” (PLoS ONE, 2013)
No end group written: not given here.

Legend:
A375Ppuro cells = test: Flow cytometry binding to αvβ6-negative cells; assay type: cell-based; conditions: for binding to αvβ6-negative cells (Figure S1): biotinylated peptide at 1 uM, A375Ppuro, rabbit anti-biotin IgG then anti-rabbit IgG-Alexafluor 488; for binding to αvβ6-negative cells: flow cytometry, A375Ppuro (αvβ3, αvβ5, αvβ8, α5β1 positive), dose dependent binding analysis, 0.1 or 1 uM
Method: (§1) The adherent melanoma cell lines A375Pβ6 and A375Ppuro, described previously were cultured in Dulbecco's Modified Eagles' Medium (DMEM) supplemented with 10% Foetal Calf Serum (FCS). The human oral squamous cell carcinoma VB6, which was engineered to express high levels of αvβ6, was grown in Keratinocyte Growth Medium as described.
(§2) Purified scFv were tested for specificity for αvβ6 by flow cytometry using the isogenic pairs of cell lines, A375Pβ6 and A375Ppuro, or DX3β6 and DX3puro. Each pair expresses similar levels of four RGD-binding integrins (αvβ3, αvβ5, αvβ8, α5β1) but only A375Pβ6 and DX3β6 express αvβ6 [14], [22], [30]. Briefly, cells were detached with trypsin/EDTA, rinsed twice in ice-cold wash buffer (0.1% BSA/DMEM/0.1% NaN3) and approximately 2×10^5 cells re-suspended in 50 µl of wash buffer per sample. In between all incubation steps, all samples were washed twice with wash buffer unless otherwise stated. Cells were incubated on ice for 1 hr with 0.1 or 1 uM purified scFv of peptide, washed twice. For scFv, cells were then incubated for 1 hr on ice with mouse anti-Myc antibody (clone 9E10, Santa Cruz) at 1∶100. After washing, bound antibody was detected with anti-mouse IgG-Alexaflour 488 (1∶250 for 1 h; Molecular Probes), on ice. […] Cells were analysed using the FACSCalibur (Beckton Dickinson). Cell expression of αvβ6 integrin was detected with mouse monoclonal antibody (clone 10D5, 10 µg/ml; Millipore) and non-specific (control) binding with non-immune class matched IgG.
Supplementary file pone.0070452.s001.tif: Figure S1 A375Ppuro cells were incubated with biotinylated D25p or D34p at 1 uM. Bound peptide was detected with rabbit anti-biotin IgG (1∶200), followed by anti-rabbit IgG-Alexafluor 488 (1∶250; Molecular Probes). […] Black histograms represent controls where peptides were omitted. (TIF) Click here for additional data file.

αvβ6-negative cells = test: Internalisation assay, αvβ6-negative cells (confocal microscopy); conditions: scFv 4 uM or biotinylated peptide 100 nM, 37°C
αvβ6-expressing cells = test: Internalisation assay, αvβ6-expressing cells (confocal microscopy); conditions: for nuclear localisation / time of efficient internalisation: biotinylated peptide 100 nM; for nuclear localisation / time of efficient internalisation / cellular internalisation in αvβ6-expressing cells: 37°C; for cellular internalisation in αvβ6-expressing cells: scFv 4 uM or biotinylated peptide 100 nM, confocal microscopy
recombinant αvβ6 = test: Monoclonal scFv screening ELISA / binding to immobilised recombinant αvβ6; conditions: specific binding to recombinant αvβ6, summary statement
Method: Figure 2 Screening of phage clones isolated from the α-helix & 3_10-helix libraries. A) Monoclonal scFv screening ELISA testing 96 clones in each library. Bacterial supernatants were added to 5 µg/ml recombinant αvβ6 immobilized onto ELISA plate and then probed with mouse anti-Myc antibody followed by anti-mouse-HRP. B) Clones with unique sequences were screened for binding cellular αvβ6 by flow cytometry. […] For clarity the relevant αvβ6-specific mouse monoclonal antibody 10D5 (grey) and the negative control IgG (black) histograms are also shown in each plot. […] TEXT PRINTED IN THE PICTURE: (C) D25: 30kDa | (C) D34: 30kDa
The α-helix and 3_10 libraries were each rescued separately KM13 helper phage as described previously. For selection, we used in parallel each library separately as well as mixed alpha helix and 3_10 libraries. The initial phage selection was performed using immobilised recombinant αvβ6 protein as described previously, [29] and http://www.lifesciences.sourcebioscience.com/ media/143421/tomlinsonij.pdf. After two rounds of selection on immobilised αvβ6 we then selected the libraries on cell-expressed αvβ6 using A375Pβ6 and A375PPuro cell lines, for αvβ6-positive and αvβ6-negative selection, respectively, [22]. First line screening were done by ELISA using 5 µg/ml immobilised recombinant αvβ6 as described.

[1] = tested on: A375Pβ6 cells (cellular αvβ6); test: Flow cytometry binding to αvβ6-expressing cells; assay type: cell-based; conditions: for binding to αvβ6-expressing cells: flow cytometry, dose dependent binding analysis, 0.1 or 1 uM, 1 hr on ice, MFI
Method: as §1, §2

cellular αvβ6 = test: Inhibition of A20FMDV2 binding to cellular αvβ6 (flow cytometry); assay type: cell-based; conditions: 0.1 and 1.0 µM, 10 min pre-incubation, 40 min with 10 nM biotinylated A20FMDV2; % of MFI without inhibitor
[2] = tested on: αvβ6-dependent adhesion of carcinoma cells to immobilised fibronectin; test: αvβ6-dependent adhesion to fibronectin (Picogreen adhesion assay); assay type: cell-based; conditions: for inhibition of αvβ6-dependent adhesion to fibronectin: fibronectin 10 ug/ml, 30 min at 37°C, quadruplicate, repeated at least 2-3 times
Method: All adhesion assays were performed in quadruplicate and repeated at least 2–3 times. In a 96-well plate format, test wells were coated with Fibronectin (10 ug/ml/PBS) and negative control wells were coated with 0.1% BSA (bovine serum albumin)/PBS. After incubation at 37°C for 1 hour, plates were washed in PBS twice and blocked with 0.1% BSA/PBS for 30 mins at 37°C. Following a PBS rinse, cells were seeded into the wells, the plate resting on ice to avoid dehydration and to ensure an initial uniform temperature for the experiment. Purified scFv or peptide was added (25 ul) to the wells at the desired concentrations, before adding 1.5×10^4 cells (25 ul) per well. In some experiments, cells (1.5×10^4) were pre-treated with β1 blocking antibody AIIB2 at 10 ug/ml before seeding into test wells to block the β1-dependent fibronectin adhesion. To determine percentage adhesion, standard curves were generated by plating 0–2.5×10^4 cells in separate wells. After incubating plates at 37°C for 30′ plates were washed twice in 1 mM CaCl2/0.5 mM MgCl2/PBS and transferred into −80°C for 15 mins. Adherent cells were quantified using a Picogreen kit (Invitrogen) and analysed on a fluorescence reader (FLUOstar Optima, BMG Labtech Ltd, Bucks, UK).

[3] = Size-exclusion chromatography (FPLC) of purified scFv

biotinylated-D25p: biotinylated D25p peptide (EPRGDLRTLAAREKRNFNETLARLQEKGI; also: biotinylated, position not given here)
binding to αvβ6-negative cells (Figure S1) (A375Ppuro cells): no significant binding
cellular internalisation in αvβ6-negative cells (αvβ6-negative cells): not in αvβ6-negative cells
nuclear localisation (αvβ6-expressing cells; αvβ6-expressing cells): no nuclear localisation
time of efficient internalisation (αvβ6-expressing cells; αvβ6-expressing cells): 30 to 45 min
cellular internalisation in αvβ6-expressing cells (αvβ6-expressing cells): cellular internalisation in αvβ6-expressing cells

D25scFv: human scFv clone with synthetic VH-CDR3 encoding RGD α-helix, EP RGDLRTLAAREKRNFNETLAR LQEKGI
binding to recombinant αvβ6 (recombinant αvβ6): specific binding to recombinant and cellular αvβ6
comparison of binding to cellular αvβ6, D34scFv versus D25scFv ([1]; discussion statement): no difference in binding
binding to αvβ6-expressing cells [1]: αvβ6-specific binding to A375Pβ6 cells
binding to cellular αvβ6, flow cytometry verification ([1]; scFv at 100, 10 and 1 µg/ml): Binding to cellular αvβ6
binding to αvβ6-negative cells (A375Ppuro cells): not A375Ppuro
inhibition of A20FMDV2 binding to cellular αvβ6 (cellular αvβ6): dose-dependent inhibition
inhibition of αvβ6-dependent adhesion to fibronectin [2]: significant concentration-dependent inhibition
comparison of adhesion inhibition, D25scFv vs D34scFv ([2]; p>0.05): similarly inhibited
size-exclusion lower peaks elution volume ([3]; HiPrep 16/60 sephacryl S-200, PBS, 0.3 ml/min, 280 nm, scFv dimers and tetramers): 45 to 60 mL
size-exclusion major peak, apparent molecular weight ([3]; HiPrep 16/60 sephacryl S-200, PBS, calibration curve): 30 kDa
oligomerisation by size-exclusion chromatography ([3]; lower peaks at 45–60 ml, PBS): scFv dimers and tetramers
cellular internalisation in αvβ6-negative cells (αvβ6-negative cells): not in αvβ6-negative cells
cellular internalisation in αvβ6-expressing cells (αvβ6-expressing cells): cellular internalisation in αvβ6-expressing cells
cellular localisation at 0 minutes (αvβ6-expressing cells; scFv 4 uM, 0 minutes, αvβ6-expressing cells): localised at the cell surface
cellular localisation at 45 minutes (αvβ6-expressing cells; scFv 4 uM, 37°C for 45 minutes, αvβ6-expressing cells): localised within the cell cytoplasm and nucleus

EP RGDLRTLAAREKRNFNETLAR LQEKGI [D25p, VH-CDR3 derived peptide of D25scFv, 29 amino-acids]
binding to recombinant αvβ6 (recombinant αvβ6): specific binding to recombinant and cellular αvβ6
binding to αvβ6-expressing cells [1]: αvβ6-specific binding to A375Pβ6 cells
binding to αvβ6-negative cells (A375Ppuro cells): not A375Ppuro
inhibition of A20FMDV2 binding to cellular αvβ6 (cellular αvβ6): dose-dependent inhibition
comparison of inhibition of αvβ6-cellular function, D25p vs D34p ([2]; discussion statement): more efficient inhibitor of αvβ6-cellular function than D34p
inhibition of αvβ6-dependent adhesion to fibronectin [2]: significant concentration-dependent inhibition
comparison of adhesion inhibition, D25p vs D34p ([2]; p = 0.0156, Wilcoxon matched-pairs signed rank test): significantly stronger than D34p

biotinylated-D34p: biotinylated D34p peptide (QPRGDLRELAARSEAQLQEKGI; also: biotinylated, position not given here)
cellular internalisation in αvβ6-negative cells (αvβ6-negative cells): not in αvβ6-negative cells
nuclear localisation (αvβ6-expressing cells; αvβ6-expressing cells): no nuclear localisation
time of efficient internalisation (αvβ6-expressing cells; αvβ6-expressing cells): 30 to 45 min
cellular internalisation in αvβ6-expressing cells (αvβ6-expressing cells): cellular internalisation in αvβ6-expressing cells

QP RGDLRELAARSEAQLQEKGI [D34p, VH-CDR3 derived peptide of D34scFv, 22 amino-acids]
binding to recombinant αvβ6 (recombinant αvβ6): specific binding to recombinant and cellular αvβ6
binding to αvβ6-expressing cells [1]: αvβ6-specific binding to A375Pβ6 cells
binding to αvβ6-negative cells (Figure S1) (A375Ppuro cells): no significant binding
binding to αvβ6-negative cells (A375Ppuro cells): not A375Ppuro
inhibition of A20FMDV2 binding to cellular αvβ6 (cellular αvβ6): dose-dependent inhibition
inhibition of αvβ6-dependent adhesion to fibronectin [2]: significant concentration-dependent inhibition
